Data reported in publication PMC9037349, “Elucidation of molecular interactions of theaflavin monogallate with camel milk lactoferrin: detailed spectroscopic and dynamic simulation studies” (RSC Advances, 2021).

Molecular target: T1, camel milk lactoferrin (Camelus dromedarius, UniProt Q9TUM0)
T1 construct: gene LTF; lactoferrin isolated and purified from camel milk
T1 sequence (Q9TUM0 20-708): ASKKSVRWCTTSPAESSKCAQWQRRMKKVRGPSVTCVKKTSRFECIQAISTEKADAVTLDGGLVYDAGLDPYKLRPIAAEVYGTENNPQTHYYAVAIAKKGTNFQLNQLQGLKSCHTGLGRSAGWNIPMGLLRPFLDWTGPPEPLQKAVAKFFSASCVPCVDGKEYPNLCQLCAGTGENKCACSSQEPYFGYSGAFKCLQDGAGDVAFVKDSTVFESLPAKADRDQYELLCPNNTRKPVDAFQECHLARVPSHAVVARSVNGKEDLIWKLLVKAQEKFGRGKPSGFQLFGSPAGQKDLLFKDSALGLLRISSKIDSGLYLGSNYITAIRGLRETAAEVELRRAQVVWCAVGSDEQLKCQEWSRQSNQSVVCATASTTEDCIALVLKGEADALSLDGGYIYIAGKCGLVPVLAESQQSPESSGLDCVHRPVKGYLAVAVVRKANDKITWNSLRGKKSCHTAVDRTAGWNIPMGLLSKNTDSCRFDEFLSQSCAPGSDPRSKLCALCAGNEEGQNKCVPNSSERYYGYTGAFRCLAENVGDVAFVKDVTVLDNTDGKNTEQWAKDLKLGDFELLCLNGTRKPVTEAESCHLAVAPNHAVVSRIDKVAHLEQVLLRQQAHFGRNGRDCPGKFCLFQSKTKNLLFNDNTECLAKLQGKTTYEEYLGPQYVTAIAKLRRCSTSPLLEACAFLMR
Assay: intrinsic fluorescence quenching titration (static; modified Stern-Volmer, […] K), supported by FRET, ANS fluorescence and CD
Type: binding
Settings: read-out: K a × 10^4 (M^-1) (converted)

Kd: 23.4 µM
SMILES: O=C(O[C@@H]1Cc2c(O)cc(O)cc2O[C@@H]1c1cc(O)c(=O)c2c(O)c(O)cc([C@H]3Oc4cc(O)cc(O)c4C[C@H]3O)c2c1)c1cc(O)c(O)c(O)c1 [theaflavin monogallate]
